Laboratory results: patent US20100041089A1, “IMPROVED METHOD FOR DETECTING CHEMICAL […]” (priority 2006, published 2010)

Test system: yeast genes (expressed mRNA)
Assay: DNA chip measurement of expressed mRNA of yeast genes after culture with a toxic chemical substance
Type: cell-based, Saccharomyces cerevisiae S288C
Settings: for level of expressed mRNA in the presence of chemical substance / level in the absence of chemical substance: cultured two hours with the chemical substance; for The level of expressed mRNA in the presence of chemical substance/The level of expressed mRNA in the absence of chemical substance: cultured two hours with substance
Experimental: Yeast (Saccharomyces cerevisiae S288C (a SUC2mal mel gap2 CUP1)) were cultured at 25° C. on YPD medium (yeast extract 1%, polypeptone 2%, glucose 2%). One of toxic chemical substances was added to the cell at logarithmic growth phase, and the cell was further cultured for two hours. Cell was cultured without any chemical substance in the same condition, and was used as a control. Concentrations of the chemical substances were defined to inhibit the growth of the yeast but not lead to death.
After the completion of cultivation, the culture was centrifuged to collect the cells. To the cells, sodium acetate buffer (50 mM sodium acetate, 10 mM EDTA, 1% SDS) was added, and the mixture was shaken at 65° C. for five minutes, followed by returning to room temperature, and obtaining the supernatant, which procedure was repeated two times. To the supernatant, ½ amount of a solution of phenol/chloroform (1:1) was added, and the mixture was centrifuged to give a supernatant, an equal amount of chloroform was added, and the mixture was centrifuged to give a supernatant. To the supernatant, an equal amount of isopropanol containing 0.3 M sodium acetate was added, and the mixture was allowed to stand at room temperature for 30 minutes, after which the mixture was centrifuged to give sediment of the whole RNAs. Seventy % ethanol was added to the sediment, and the mixture was again centrifuged to give sediment, which was then dried and dissolved in water. mRNA was isolated from the whole RNAs as followings. In view of the fact that a poly A chain is attached to the 3′ terminus of mRNA, a polynucleotide having a poly T structure which was immobilized on the surface of latex beads was used to trap the mRNA, and then the mRNA was washed and eluted with spine column (Oligotex-dT30<Super>mRNA Purification Kit, Takara). Reverse transcription of the mRNA was conducted with a reverse transcriptase (Super Script II Reverse Transcriptase; catalogue No. 18064-014, GibcoBRL) using fluorescence-labeled nucleotides to give cDNAs that were introduced with Cy3-dUTP or Cy5-dUTP during the reverse transcription.
The labeled cDNAs were dissolved in TE buffer (10 mM Tris-HCl/1 mM EDTA, pH 8.0), and the solution was dropped on the DNA chip containing the whole genes of yeast (DNA Chip Research Inc. Japan) so that the cDNAs were hybridized on the DNA chip at 65° C. for over 12 hours. The fluoresces intensity of the DNA chip was read with a scanner, and the ratio relative to the fluorescence intensity resulting from the absence of chemical substance was estimated as the following, which is shown in Tables 1 to 9.
In the Tables, “Intensity” indicated in the rightmost column is a value of the level of expressed mRNA of each gene in control cells as divided by the average level of the expressions of the whole genes. A gene of which mRNA level is lower in control, and is higher in cases of addition of chemical substance, is especially useful in the detection of toxic substances.
Here, when a ratio of an amount of mRNA expressed in the presence of the chemical substance to an amount of mRNA expressed in the absence of the chemical substance is two or more, then it is considered significant.

Structure (SMILES): [Cl][Pb][Cl] [(4), PbCl2]
- level of expressed mRNA in the presence of chemical substance / level in the absence of chemical substance (yeast gene YJL097W): 1.6
- The level of expressed mRNA in the presence of chemical substance/The level of expressed mRNA in the absence of chemical substance (yeast gene YJL151C): 1.2
- The level of expressed mRNA in the presence of chemical substance/The level of expressed mRNA in the absence of chemical substance (yeast gene YJL152W): 1.3
- The level of expressed mRNA in the presence of chemical substance/The level of expressed mRNA in the absence of chemical substance (yeast gene YJL161W): 4.6
- The level of expressed mRNA in the presence of chemical substance/The level of expressed mRNA in the absence of chemical substance (yeast gene YJL171C): 1.4
- The level of expressed mRNA in the presence of chemical substance/The level of expressed mRNA in the absence of chemical substance (yeast gene YJR008W): 1.7
- level of expressed mRNA in the presence of chemical substance / level in the absence of chemical substance (yeast gene YJR030C): 1.2
- The level of expressed mRNA in the presence of chemical substance/The level of expressed mRNA in the absence of chemical substance (yeast gene YJR054W): 0.9
- level of expressed mRNA in the presence of chemical substance / level in the absence of chemical substance (yeast gene YKL051W): 0.8
- The level of expressed mRNA in the presence of chemical substance/The level of expressed mRNA in the absence of chemical substance (yeast gene YKL071W): 2.8
- The level of expressed mRNA in the presence of chemical substance/The level of expressed mRNA in the absence of chemical substance (yeast gene YKL086W): 2.6
- level of expressed mRNA in the presence of chemical substance / level in the absence of chemical substance (yeast gene YKL097C): 1.4
- level of expressed mRNA in the presence of chemical substance / level in the absence of chemical substance (yeast gene YKL100C): 1.6
- The level of expressed mRNA in the presence of chemical substance/The level of expressed mRNA in the absence of chemical substance (yeast gene YKL151C): 2.5
- The level of expressed mRNA in the presence of chemical substance/The level of expressed mRNA in the absence of chemical substance (yeast gene YKL153W): 0.7
- The level of expressed mRNA in the presence of chemical substance/The level of expressed mRNA in the absence of chemical substance (yeast gene YKL195W): 1.1
- level of expressed mRNA in the presence of chemical substance / level in the absence of chemical substance (yeast gene YKR040C): 2.9
- The level of expressed mRNA in the presence of chemical substance/The level of expressed mRNA in the absence of chemical substance (yeast gene YKR091W): 3.5
- The level of expressed mRNA in the presence of chemical substance/The level of expressed mRNA in the absence of chemical substance (yeast gene YLR054C): 2.4
- The level of expressed mRNA in the presence of chemical substance/The level of expressed mRNA in the absence of chemical substance (yeast gene YLR149C): 2.3
- The level of expressed mRNA in the presence of chemical substance/The level of expressed mRNA in the absence of chemical substance (yeast gene YLR152C): 0.9
- The level of expressed mRNA in the presence of chemical substance/The level of expressed mRNA in the absence of chemical substance (yeast gene YLR194C): 3.6
- level of expressed mRNA in the presence of chemical substance / level in the absence of chemical substance (yeast gene YLR226W): 1.0
- The level of expressed mRNA in the presence of chemical substance/The level of expressed mRNA in the absence of chemical substance (yeast gene YLR324W): 1.0
- level of expressed mRNA in the presence of chemical substance / level in the absence of chemical substance (yeast gene YLR338W): 1.1
- The level of expressed mRNA in the presence of chemical substance/The level of expressed mRNA in the absence of chemical substance (yeast gene YLR350W): 2.3
- The level of expressed mRNA in the presence of chemical substance/The level of expressed mRNA in the absence of chemical substance (yeast gene YLR387C): 0.6
- level of expressed mRNA in the presence of chemical substance / level in the absence of chemical substance (yeast gene YLR392C): 1.9
- level of expressed mRNA in the presence of chemical substance / level in the absence of chemical substance (yeast gene YLR427W): 0.5
- The level of expressed mRNA in the presence of chemical substance/The level of expressed mRNA in the absence of chemical substance (yeast gene YLR460C): 1.1
- level of expressed mRNA in the presence of chemical substance / level in the absence of chemical substance (yeast gene YML013W): 0.6
- level of expressed mRNA in the presence of chemical substance / level in the absence of chemical substance (yeast gene YML029W): 1.0
- level of expressed mRNA in the presence of chemical substance / level in the absence of chemical substance (yeast gene YML041C): 1.0
- level of expressed mRNA in the presence of chemical substance / level in the absence of chemical substance (yeast gene YML079W): 1.5
- The level of expressed mRNA in the presence of chemical substance/The level of expressed mRNA in the absence of chemical substance (yeast gene YML117W): 1.6
- The level of expressed mRNA in the presence of chemical substance/The level of expressed mRNA in the absence of chemical substance (yeast gene YMR009W): 1.9
- The level of expressed mRNA in the presence of chemical substance/The level of expressed mRNA in the absence of chemical substance (yeast gene YMR067C): 0.4
- level of expressed mRNA in the presence of chemical substance / level in the absence of chemical substance (yeast gene YMR068W): 1.5
- level of expressed mRNA in the presence of chemical substance / level in the absence of chemical substance (yeast gene YMR071C): 1.9
- The level of expressed mRNA in the presence of chemical substance/The level of expressed mRNA in the absence of chemical substance (yeast gene YMR090W): 3.5
- The level of expressed mRNA in the presence of chemical substance/The level of expressed mRNA in the absence of chemical substance (yeast gene YMR095C): 1.0
- The level of expressed mRNA in the presence of chemical substance/The level of expressed mRNA in the absence of chemical substance (yeast gene YMR097C): 1.6
- The level of expressed mRNA in the presence of chemical substance/The level of expressed mRNA in the absence of chemical substance (yeast gene YMR102C): 0.8
- The level of expressed mRNA in the presence of chemical substance/The level of expressed mRNA in the absence of chemical substance (yeast gene YMR107W): 18.4
- level of expressed mRNA in the presence of chemical substance / level in the absence of chemical substance (yeast gene YMR160W): 1.2
- The level of expressed mRNA in the presence of chemical substance/The level of expressed mRNA in the absence of chemical substance (yeast gene YMR180C): 1.3
- The level of expressed mRNA in the presence of chemical substance/The level of expressed mRNA in the absence of chemical substance (yeast gene YMR184W): 1.1
- The level of expressed mRNA in the presence of chemical substance/The level of expressed mRNA in the absence of chemical substance (yeast gene YMR191W): 1.6
- The level of expressed mRNA in the presence of chemical substance/The level of expressed mRNA in the absence of chemical substance (yeast gene YMR295C): 1.6
- The level of expressed mRNA in the presence of chemical substance/The level of expressed mRNA in the absence of chemical substance (yeast gene YMR316W): 1.9
- level of expressed mRNA in the presence of chemical substance / level in the absence of chemical substance (yeast gene YNL026W): 0.8
- The level of expressed mRNA in the presence of chemical substance/The level of expressed mRNA in the absence of chemical substance (yeast gene YNL044W): 1.3
